Measurements published in patent US12077503B2, “Substituted cyclic amides and their use as herbicides” (FMC CORPORATION, priority 2015, dated 2024).
Like-named read-outs stand apart in the source and are kept apart here.

What was measured:
[1] = test system: wheat (Triticum aestivum); assay: Test A postemergence; assay type: in vivo; conditions: Triticum aestivum, post-emergence, 240 h; for plant injury at 125 g/ha: 125 g ai/ha; for plant injury at 500 g/ha: 500 g ai/ha, visual injury, approx. 10 d
In short: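 Preemergence directed soil spray on seeded pots, or postemergence application to plants 2–10 cm, one- to two-leaf. Solvent mixture non-phytotoxic, with surfactant. Scored ~10 d later, visually, 0–100 vs untreated.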

[2] = test system: barnyardgrass (Echinochloa crus-galli); assay: Test B flooded paddy test; assay type: in vivo; conditions: Echinochloa crus-galli, Flood, 250 g ai/ha
In short: (§1)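 Greenhouse paddy pots with 2-leaf stage plants received compound by direct addition to floodwater 3 cm deep, kept at that level. Scored visually at 13–15 d versus controls (0 no effect; 100 complete control).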

[3] = test system: ducksalad (Heteranthera limosa); assay: Test B flooded paddy test; assay type: in vivo; conditions: Heteranthera limosa, Flood, 250 g ai/ha
In short: as §1

rice (Oryra sativa) = assay: Test B flooded paddy test; assay type: in vivo; conditions: Oryza sativa, Flood, 250 g ai/ha
In short: as §1

[4] = test system: sedge, umbrella (small-flower umbrella sedge, Cyperus difformis); assay: Test B flooded paddy test; assay type: in vivo; conditions: Cyperus difformis, Flood, 250 g ai/ha
In short: as §1

[5] = Postemergence, visual rating about 10 d after treatment, read-out: Wheat plant response rating (0 to 100 scale)
[6] = Postemergence, 0 to 100 scale (0 no effect, 100 complete control), read-out: Plant response rating, Wheat
[7] = 360 h, visually evaluated after 13 to 15 d, read-out: Plant response rating, Barnyardgrass (0 to 100 scale where 0 is no effect and 100 is complete control)
[8] = 360 h, visually evaluated after 13 to 15 d, read-out: Plant response rating, Ducksalad (0 to 100 scale where 0 is no effect and 100 is complete control)
[9] = 360 h, visually evaluated after 13 to 15 d, read-out: Plant response rating, Rice (0 to 100 scale where 0 is no effect and 100 is complete control)
[10] = 360 h, visually evaluated after 13 to 15 d, read-out: Plant response rating, Sedge, Umbrella (0 to 100 scale where 0 is no effect and 100 is complete control)
[11] = postemergence, visual injury after approximately 10 d, 0 to 100 scale (0 no effect, 100 complete control), read-out: Plant response rating, Wheat
[12] = scale of 0 to 100 where 0 is no effect and 100 is complete control, read-out: Barnyardgrass plant response rating
[13] = scale of 0 to 100 where 0 is no effect and 100 is complete control, read-out: Ducksalad plant response rating
[14] = scale of 0 to 100 where 0 is no effect and 100 is complete control, read-out: Rice plant response rating
[15] = scale of 0 to 100 where 0 is no effect and 100 is complete control, read-out: Sedge, Umbrella plant response rating
[16] = 0 to 100 scale where 0 is no effect and 100 is complete control, read-out: Barnyardgrass plant response rating
[17] = 0 to 100 scale where 0 is no effect and 100 is complete control, read-out: Ducksalad plant response rating
[18] = 0 to 100 scale where 0 is no effect and 100 is complete control, read-out: Rice plant response rating
[19] = 0 to 100 scale where 0 is no effect and 100 is complete control, read-out: Sedge, Umbrella plant response rating

Compound	plant injury at 125 g/ha [1, 5] [%]	plant injury at 500 g/ha [1, 6] [%]	pest or weed control at 250 g/ha [2, 7] [%]	pest or weed control at 250 g/ha [3, 8] [%]	pest or weed control at 250 g/ha (rice (Oryra sativa); [9]) [%]	pest or weed control at 250 g/ha [4, 10] [%]	melting point [°C]	pest or weed control at 250 g/ha [2, 16] [%]	pest or weed control at 250 g/ha [3, 17] [%]	pest or weed control at 250 g/ha (rice (Oryra sativa); [18]) [%]	further results
O=C1NC[C@H](c2cc(C(F)(F)F)ccn2)[C@H]1C(=O)Nc1cccc(F)c1F (racemic) [Compound 1376]	0	60	40	70	0	0	146 to 150	–	–	–	–
CN1C[C@H](c2cc(F)cc(F)c2)[C@@H](C(=O)NC2CCc3ccccc32)C1=O (stereo partly drawn) [Compound 755]	–	–	–	–	–	–	135 to 139	–	–	–	plant injury at 125 g/ha [1, 11]: 0%; pest or weed control at 250 g/ha [2, 12]: 0%; pest or weed control at 250 g/ha [3, 13]: 0%; pest or weed control at 250 g/ha (rice (Oryra sativa); [14]): 0%; pest or weed control at 250 g/ha [4, 15]: 0%
CN1C[C@H](c2nccs2)[C@@H](C(=O)Nc2ccccc2F)C1=O [Compound 773]	–	–	–	–	–	–	69.5 to 77	–	–	–	plant injury at 125 g/ha [1, 11]: 0%; pest or weed control at 250 g/ha [2, 12]: 0%; pest or weed control at 250 g/ha [3, 13]: 0%; pest or weed control at 250 g/ha (rice (Oryra sativa); [14]): 0%; pest or weed control at 250 g/ha [4, 15]: 0%
CN1C[C@H](c2nccs2)[C@@H](C(=O)Nc2cccc(F)c2F)C1=O [Compound 774]	–	–	–	–	–	–	133.9 to 140.7	–	–	–	plant injury at 125 g/ha [1, 11]: 0%; pest or weed control at 250 g/ha [2, 12]: 0%; pest or weed control at 250 g/ha [3, 13]: 0%; pest or weed control at 250 g/ha (rice (Oryra sativa); [14]): 0%; pest or weed control at 250 g/ha [4, 15]: 0%
Cc1ccccc1NC(=O)[C@H]1C(=O)N(C)C[C@@H]1c1ccc(C(F)(F)F)cc1 [Compound 1239]	–	–	–	–	–	–	123 to 127	40	100	20	plant injury at 125 g/ha ([1]; postemergence, visual injury vs untreated controls after approx. 10 d, 0 = no effect, 100 = complete control, read-out: Wheat plant response rating (0 to 100 scale)): 30%; pest or weed control at 250 g/ha [4, 19]: 0%
COc1cc([C@H]2CN(C)C(=O)[C@@H]2C(=O)Nc2ccccc2F)ccc1F [Compound 1298]	0	20	–	–	–	–	–	50	80	15	pest or weed control at 250 g/ha [4, 19]: 0%
COc1cc([C@H]2CN(C)C(=O)[C@@H]2C(=O)Nc2cccc(F)c2C)ccc1F [Compound 1300]	0	50	–	–	–	–	–	65	80	25	pest or weed control at 250 g/ha [4, 19]: 0%
CN1C[C@H](c2cccc(C(C)(F)F)c2)[C@@H](C(=O)Nc2ccc(F)cc2F)C1=O [Compound 1319]	60	60	–	–	–	0	–	90	90	0	–
CN1C[C@H](c2ccc3c(c2)CCO3)[C@@H](C(=O)Nc2cccc(F)c2F)C1=O [Compound 1324]	30	70	–	–	–	0	–	75	65	0	–
O=C1NC[C@H](c2ccc(OC(F)F)cc2)[C@H]1C(=O)Nc1ccc(F)cc1F [Compound 1325]	0	0	–	–	–	0	–	15	100	0	–
Cc1c(F)ccc([C@H]2CNC(=O)[C@@H]2C(=O)Nc2ccccc2F)c1F [Compound 1326]	0	0	–	–	–	0	–	0	70	0	–
C=CCOc1cccc(C2CN(C)C(=O)C2C(=O)Nc2ccccc2F)c1 (stereo not drawn) [Compound 1329]	0	20	60	70	0	0	81 to 84	–	–	–	–
CN1CC[C@H](c2cccc(C(F)(F)F)c2)[C@@H](C(=O)Nc2cccc(F)c2F)C1=O [Compound 1330]	50	70	85	90	0	0	54 to 57	–	–	–	–
N#Cc1ccc(NC(=O)C2C(=O)NCC2c2ccccc2)cc1 (stereo not drawn) [Compound 1355]	0	0	–	–	–	–	186 to 188	–	–	–	–
CN1C[C@H](c2cc(C(F)(F)F)cs2)[C@@H](C(=O)Nc2cccc(F)c2F)C1=O [Compound 1377]	30	60	60	90	15	0	–	–	–	–	–
CN1C[C@H](c2ccc(C(F)(F)F)cc2)[C@@H](C(=O)Nc2cccc(F)c2C#N)C1=O [Compound 1380]	40	40	60	100	0	0	–	–	–	–	–
CN1C[C@H](c2ccc(C(F)F)cc2)[C@@H](C(=O)Nc2cccc(F)c2F)C1=O [Compound 1383]	60	80	65	100	25	0	–	–	–	–	–
CSc1ccccc1NC(=O)[C@H]1C(=O)N(C)C[C@@H]1c1ccc(C(F)(F)F)cc1 [Compound 1391]	–	60	0	75	0	0	–	–	–	–	plant injury at 125 g/ha ([1]; Postemergence, visual injury after approx. 10 d, 0 to 100 scale, 0 no effect, 100 complete control, read-out: Plant response rating, Wheat): 30%
